Assay results reported in patent publication US20250222109A1, “STRUCTURED LIPID COMPOSITIONS” (Universität Bern, priority 2022, published 2025).

Key:
[1] = test system: T cell transfer colitis; assay: T-cell transfer colitis; type: in vivo, mice
Description: To induce T cell mediated colitis, CD4+ T cells were isolated from the spleen of C57/BL6 mice (Strain #: 000664; RRID:IMSR_JAX: 000664 ex. Jackson laboratories) using the CD4 T cell isolation kit from Stemcell Technologies (#19852; Cologne, Germany) and subsequently naïve T helper cells (CD3+, CD4+, CD25low, […], CD44low cells) were sorted on a FACS Aria III (Becton Dickinson; Eysins, Switzerland) as described previously (D. V. Ostanin, et al., T cell transfer model of chronic colitis: Concepts, considerations, and tricks of the tradeAm. J. Physiol.—Gastrointest. Liver Physiol. 296, 135-146 (2009); M. R. Spalinger, et al., PTPN2 controls differentiation of CD4+ T cells and limits intestinal inflammation and intestinal dysbiosis, Mucosal Immunol. 8, 918-929 (2015); M. R. Spalinger, et al., Loss of PTPN22 Promotes Intestinal Inflammation by Compromising Granulocyte-mediated Antibacterial Defence, J. Crohn's Colitis 15, 2118-2130 (2021)). 12-15 week old male and female Rag^−/− mice in the C57/BL6 background (model RAGN12 (B6.129S6-Rag2^tm1Fwa N12) ex. Taconic) were injected intraperitoneally with 2.5×10^5 naïve T helper cells (all methods used were approved under licence no. ZH043/2021). Starting on day 2 post T cell injection, the mice received one daily rectal instillation (100 μL) of empty TIF-Gels, TAC-loaded TIF-Gels or TAC in vehicle solution (1% […] in distilled water). Weight development and disease activity scores were measured on a daily basis. On the last day of the experiment (day 18), the mice were anaesthetised using a mixture of ketamine 90-120 mg/kg bodyweight (Vétoquinol, Bern, Switzerland) and xylazine 8 mg/kg bodyweight (Bayer, Lyssach, Switzerland), and were subjected to mouse endoscopy to assess the extent of endoscopic colitis (M. R. Spalinger, et al., Protein tyrosine phosphatase non-receptor type 22 modulates colitis in a microbiota-dependent manner, J. Clin. Invest. 129, 2527-2541 (2019)) using the following parameters: 1) thickening of the colon wall, 2) vascularisation/bleeding, 3) extent of fibrin deposits, 4) granular appearance of the colon wall, 5) stool consistency. Each parameter was given a score from 0 (normal) to 3 (most severe appearance), resulting in a maximal total score of 15. After colonoscopy, the mice were sacrificed and colon tissue harvested for histology and isolation of lamina propria immune cells. Immune cells were isolated from the colon, mesenteric lymph nodes and the spleen, and analysed for immune cell subsets (M. R. Spalinger, et al., (2019) Loss of PTPN22 abrogates the beneficial effect of cohousing-mediated fecal microbiota transfer in murine colitis, Mucosal Immunol. 12, 1336-1347).
To assess the microscopic extent of colitis, formalin-fixed, paraffin embedded sections of the most distal 1.5 cm of the colon were subjected to hematoxilin and eosin (H&E) staining using standard protocols (M. R. Spalinger, et al. (2019)). The sections were analysed by two blinded scientists for the extent of epithelial damage (score 0-4) and infiltration of immune cells (score 0-4) resulting in a maximal possible score of 8. Images were taken using a Zeiss Axio Imager.Z2 microscope (Zeiss), equipped with an AxioCam HRc (Zeiss, Jena, Germany) camera and ZEN imaging software (Zeiss, Germany).
To analyse cytokine levels in the colons, colon pieces were lysed in PBS (1 ml PBS/[…] tissue) using a GentleMACS device from Miltenyi Biotec (Miltenyi Biotec, Bergisch Gladbach, Germany). Lysates were then analysed for cytokines using the Bio-Plex Pro Mouse Cytokine 23-plex Assay from Bio-Rad (Hercules, CA) according to the manufacturer's instructions.
TIF-Gel acts as a platform able to host and release molecules with different polarity. Thus, the hydrophobic TAC was loaded in to TIF-Gel and its ability to reduce colitis severity was assessed also using a model of T cell mediated colitis, namely T cell transfer colitis. […]

[2] = Stability study of TAC and TOFA-loaded TIF-Gel (HPLC); type: physicochemical; conditions: 4° C. and 25° C., one-month period
Description: The TAC and TOFA-loaded TIF-Gels were prepared according to Example 1. […] The TAC-loaded TIF-Gel composition comprised a) a carrier comprising: a1) water in an amount of 16% by weight of the carrier; and a2) MLO in an amount of 84% by weight of the carrier; and b) TAC in an amount of 1% by weight of the composition. […] At specific time points, an aliquot of the formulation was analysed at the HPLC, and the content of the drug was recorded. Data are expressed as relative percentage referred to day 0.

[3] = test system: T cell transfer colitis; assay: T-cell transfer colitis; type: in vivo, mice; conditions: colonoscopy, day 19 post T cell application
[4] = daily rectal instillation 100 μL

long-term stability of drug loaded into TIF-gel (drug content by HPLC) [2]: stable
Compound: C=CC[C@@H]1/C=C(\C)C[C@H](C)C[C@H](OC)[C@H]2O[C@@](O)(C(=O)C(=O)N3CCCC[C@H]3C(=O)O[C@H](/C(C)=C/[C@@H]3CC[C@@H](O)[C@H](OC)C3)[C@H](C)[C@@H](O)CC1=O)[C@H](C)C[C@@H]2OC [TAC, tacrolimus]
levels of IFN-γ ([1]; colonic tissues): reduced levels | levels of IL-17 ([1]; colonic tissues): reduced levels | first signs of colitis, day post T cell transfer ([1]; daily rectal instillation): ~10 days | diarrhoea / disease activity score [1, 4]: signs of diarrhoea | weight development [1, 4]: progressive weight loss | relative abundance of T cells ([1]; lamina propria, mesenteric lymph nodes and spleen): reduced the relative abundance of T cells | abundance of FOXP3+ (regulatory) T cells ([1]; mouse, in vivo): not much effect | Th1 cells ([1]; vs empty TIF-Gels): reduced | Th17 cells ([1]; vs empty TIF-Gels): reduced | colon length ([1]; vs empty TIF-Gels): longer colons | spleen weight ([1]; vs empty TIF-Gels): reduced spleen weight | endoscopic signs of colitis [3]: reduced endoscopic signs of colitis
